What follows are compounds tested on beta-TC6 cells (assay: Insulin HTRF assay (relative activity Ar) in beta-TC6 cells). Details: Mus musculus, Beta-TC6, 4 h, insulin HTRF, supernatant of beta-TC6 cells, incubation with test compound at 37°C for 2, 3, 4h; read-out: Ar (relative activity).
Assay type: cell-based, mouse
In short: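 beta-TC6 cells (15k/well, seeded 24 or 48 h) washed, then exposed to compound in induction buffer (0.5% DMSO final) for 2, 3 or 4 h at 37°C.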
Compound `CNc1nc2cnc(Nc3ccc(OC)cc3OC)cc2n1-c1cccc(C(F)(F)F)c1` [Compound 543, N6-(2,4-dimethoxyphenyl)-N2-methyl-1-[3-(trifluoromethyl)phenyl]imidazo[4,5-c]pyridine-2,6-diamine] has an Emax of 30 to 50%.
Compound `COc1ccc(Nc2cc3[nH]c(-c4cccnc4)cc3cn2)cn1` [Compound 75, N-(6-methoxy-3-pyridyl)-2-(3-pyridyl)-1H-pyrrolo[3,2-c]pyridin-6-amine] has an Emax of over 100%.
With `Cc1cccc(Nc2cc3[nH]c(-c4cn[nH]c4)cc3cn2)c1` [Compound 113, N-(m-tolyl)-2-(1H-pyrazol-4-yl)-1H-pyrrolo[3,2-c]pyridin-6-amine] the Emax was 50 to 100%.
For `c1ccc(-c2nc3c(NCC4CC4)nccc3[nH]2)cc1` [Compound 339, N-(cyclopropylmethyl)-2-phenyl-1H-imidazo[4,5-c]pyridin-4-amine], the Emax was 30 to 50%.
For `COCCNC(=O)c1cccc(-c2nc3c(Nc4cc(OC)c(OC)c(OC)c4)nccc3[nH]2)c1` [Compound 385, N-(2-methoxyethyl)-3-[4-(3,4,5-trimethoxyanilino)-1H-imidazo[4,5-c]pyridin-2-yl]benzamide], the Emax was over 100%.
`COc1cccc(Nc2nccc3[nH]c(-c4cccnc4)nc23)c1` [Compound 358, N-(3-methoxyphenyl)-2-(3-pyridyl)-1H-imidazo[4,5-c]pyridin-4-amine] was tested, and the Emax was 50 to 100%.
For `COc1ccc(Nc2nccc3[nH]c(-c4ccco4)nc23)cc1` [Compound 466, 2-(2-furyl)-N-(4-methoxyphenyl)-1H-imidazo[4,5-c]pyridin-4-amine], the Emax was 50 to 100%.
`COc1ccc(Nc2nccc3[nH]c(-c4ccsc4)cc23)cn1` [Compound 254, N-(6-methoxy-3-pyridyl)-2-(3-thienyl)-1H-pyrrolo[3,2-c]pyridin-4-amine] gave an Emax of 50 to 100%.
For `CNc1nc2cnc(Nc3cccc(C(C)=O)c3)cc2n1-c1cccc(F)c1` [Compound 689, 1-[3-[[1-(3-fluorophenyl)-2-(methylamino)imidazo[4,5-c]pyridin-6-yl]amino]phenyl]ethanone], the Emax was 50 to 100%.
`Cc1cccc(CNc2nc3cnc(-c4ccc(S(C)(=O)=O)cc4)cc3n2C)c1` [Compound 806, 1-methyl-6-(4-methylsulfonylphenyl)-N-(m-tolylmethyl)imidazo[4,5-c]pyridin-2-amine] showed an Emax of 30 to 50%.
In the case of `COc1ccc(Nc2cc3c(cn2)nc(NCc2ccccc2)n3C)cc1` [Compound 621, N2-benzyl-N6-(4-methoxyphenyl)-1-methyl-imidazo[4,5-c]pyridine-2,6-diamine], the Emax is reported as 50 to 100%.
Compound `COc1cc(Nc2nccc3[nH]c(-c4ccncc4)nc23)cc(OC)c1OC` [Compound 421, 2-(4-pyridyl)-N-(3,4,5-trimethoxyphenyl)-1H-imidazo[4,5-c]pyridin-4-amine] has an Emax of 50 to 100%.
`COC(=O)c1ccc(Nc2cc3[nH]c(-c4ccc(C(=O)N(C)C)cc4)cc3cn2)cc1` [Compound 29, methyl 4-[[2-[4-(dimethylcarbamoyl)phenyl]-1H-pyrrolo[3,2-c]pyridin-6-yl]amino]benzoate] was tested, and the Emax was 30 to 50%.
`COc1ccc(Nc2nccc3c2cc(-c2ccc(C(=O)N(C)C)cc2)n3C)cn1` [Compound 216, 4-[4-[(6-methoxy-3-pyridyl)amino]-1-methyl-pyrrolo[3,2-c]pyridin-2-yl]-N,N-dimethyl-benzamide] gave an Emax of 50 to 100%.
Work on `CNc1nc2cnc(Nc3cc(OC)c(OC)c(OC)c3)cc2n1-c1cc(OC)c(OC)c(OC)c1` [Compound 482, N2-methyl-N6,1-bis(3,4,5-trimethoxyphenyl)imidazo[4,5-c]pyridine-2,6-diamine] yielded an Emax of 30 to 50%.
Work on `c1ccc(Cn2cnc3c(NCc4cccs4)nccc32)cc1` [Compound 452, 1-benzyl-N-(2-thienylmethyl)imidazo[4,5-c]pyridin-4-amine] yielded an Emax of 30 to 50%.
`Cn1cc(-c2cc3cnc(Nc4ccc5c(c4)OCCO5)cc3[nH]2)cn1` [Compound 122, N-(2,3-dihydro-1,4-benzodioxin-6-yl)-2-(1-methylpyrazol-4-yl)-1H-pyrrolo[3,2-c]pyridin-6-amine] was tested, and the Emax was 30 to 50%.
`c1ccc(-c2cc3c(Nc4cccnc4)nccc3[nH]2)cc1` [Compound 319, 2-phenyl-N-(3-pyridyl)-1H-pyrrolo[3,2-c]pyridin-4-amine] showed an Emax of 50 to 100%.
In the case of `CS(=O)(=O)Nc1cccc(Nc2nccc3[nH]c(-c4cccc(F)c4)cc23)c1` [Compound 205, N-[3-[[2-(3-fluorophenyl)-1H-pyrrolo[3,2-c]pyridin-4-yl]amino]phenyl]methanesulfonamide], the Emax is reported as 50 to 100%.
`Cn1cc(-c2cc3cnc(Nc4cccc(NS(C)(=O)=O)c4)cc3n2Cc2ccccc2)cn1` [Compound 156, N-[3-[[1-benzyl-2-(1-methylpyrazol-4-yl)pyrrolo[3,2-c]pyridin-6-yl]amino]phenyl]methanesulfonamide] gave an Emax of 30 to 50%.
In the case of `CS(=O)(=O)c1cccc(Nc2nccc3[nH]c(-c4cccc(F)c4)cc23)c1` [Compound 202, 2-(3-fluorophenyl)-N-(3-methylsulfonylphenyl)-1H-pyrrolo[3,2-c]pyridin-4-amine], the Emax is reported as 30 to 50%.
For `Oc1cccc(Nc2nccc3[nH]c(-c4ccncc4)nc23)c1` [Compound 431, 3-[[2-(4-pyridyl)-1H-imidazo[4,5-c]pyridin-4-yl]amino]phenol], the Emax was 50 to 100%.
For `COCCNc1nc2cnc(-c3ccc4ccccc4c3)cc2[nH]1` [Compound 677, N-(2-methoxyethyl)-6-(2-naphthyl)-1H-imidazo[4,5-c]pyridin-2-amine], the Emax was 50 to 100%.
`Cn1c(NCc2ccccc2)nc2cnc(-c3cncnc3)cc21` [Compound 623, N-benzyl-1-methyl-6-pyrimidin-5-yl-imidazo[4,5-c]pyridin-2-amine] was tested, and the Emax was 30 to 50%.
For `Fc1ccc(Nc2nccc3[nH]c(-c4ccccc4Cl)nc23)cc1Cl` [Compound 461, N-(3-chloro-4-fluoro-phenyl)-2-(2-chlorophenyl)-1H-imidazo[4,5-c]pyridin-4-amine], the Emax was 0 to 30%.
`Cn1cc(-c2cc3cnc(Nc4ccccc4)cc3n2C)cn1` [Compound 132, 1-methyl-2-(1-methylpyrazol-4-yl)-N-phenyl-pyrrolo[3,2-c]pyridin-6-amine] was tested, and the Emax was 50 to 100%.
Compound `COc1ccc(Nc2cc3[nH]c(-c4cccc(F)c4)cc3cn2)cc1O` [Compound 11, 5-[[2-(3-fluorophenyl)-1H-pyrrolo[3,2-c]pyridin-6-yl]amino]-2-methoxy-phenol] has an Emax of 30 to 50%.
`COc1ccc(-c2nc3c(Nc4cc(OC)c(OC)c(OC)c4)nccc3[nH]2)cc1` [Compound 389, 2-(4-methoxyphenyl)-N-(3,4,5-trimethoxyphenyl)-1H-imidazo[4,5-c]pyridin-4-amine] showed an Emax of 50 to 100%.
With `CN(C)C(=O)c1ccc(-c2cc3c(Nc4ccc5c(c4)OCCO5)nccc3n2C)cc1` [Compound 214, 4-[4-(2,3-dihydro-1,4-benzodioxin-6-ylamino)-1-methyl-pyrrolo[3,2-c]pyridin-2-yl]-N,N-dimethyl-benzamide] the Emax was 50 to 100%.
Compound `c1ccc(-c2nc3c(NCc4ccncc4)nccc3[nH]2)cc1` [Compound 335, 2-phenyl-N-(4-pyridylmethyl)-1H-imidazo[4,5-c]pyridin-4-amine] has an Emax of 0 to 30%.
For `COc1ccc(OC)c(CCNc2nc3cnc(-c4cccc(C(N)=O)c4)cc3n2C)c1` [Compound 822, 3-[2-[2-(2,5-dimethoxyphenyl)ethylamino]-1-methyl-imidazo[4,5-c]pyridin-6-yl]benzamide], the Emax was 0 to 30%.
`CNc1nc2cnc(-c3cccc(N)c3)cc2n1Cc1ccc(OC)c(OC)c1` [Compound 659, 6-(3-aminophenyl)-1-[(3,4-dimethoxyphenyl)methyl]-N-methyl-imidazo[4,5-c]pyridin-2-amine] was tested, and the Emax was 30 to 50%.
For `COc1ccc(Nc2nccc3[nH]c(-c4ccc(OC)c(OC)c4)nc23)cc1` [Compound 345, 2-(3,4-dimethoxyphenyl)-N-(4-methoxyphenyl)-1H-imidazo[4,5-c]pyridin-4-amine], the Emax was over 100%.
`COc1ccc(Nc2cc3c(cn2)nc(Nc2ccccc2)n3C)cc1OC` [Compound 632, N6-(3,4-dimethoxyphenyl)-1-methyl-N2-phenyl-imidazo[4,5-c]pyridine-2,6-diamine] showed an Emax of 50 to 100%.
Compound `c1cc2[nH]c(-c3ccsc3)cc2c(N2CCOCC2)n1` [Compound 191, 4-[2-(3-thienyl)-1H-pyrrolo[3,2-c]pyridin-4-yl]morpholine] has an Emax of 50 to 100%.
Compound `FC(F)(F)c1cccc(Nc2cc3[nH]c(-c4ccccn4)cc3cn2)c1` [Compound 66, 2-(2-pyridyl)-N-[3-(trifluoromethyl)phenyl]-1H-pyrrolo[3,2-c]pyridin-6-amine] has an Emax of 30 to 50%.
With `CC(=O)Nc1cccc(Nc2nccc3[nH]c(-c4ccsc4)cc23)c1` [Compound 266, N-[3-[[2-(3-thienyl)-1H-pyrrolo[3,2-c]pyridin-4-yl]amino]phenyl]acetamide] the Emax was 50 to 100%.
Work on `COc1ccc(OC)c(CCNc2nc3cnc(-c4cccc(NS(C)(=O)=O)c4)cc3n2C)c1` [Compound 825, N-[3-[2-[2-(2,5-dimethoxyphenyl)ethylamino]-1-methyl-imidazo[4,5-c]pyridin-6-yl]phenyl]methanesulfonamide] yielded an Emax of 0 to 30%.
For `CNc1nc2cnc(Nc3ccc(OC)cc3)cc2n1-c1cccc(F)c1` [Compound 685, 1-(3-fluorophenyl)-N6-(4-methoxyphenyl)-N2-methyl-imidazo[4,5-c]pyridine-2,6-diamine], the Emax was 50 to 100%.
Compound `Cn1cnc2c(Nc3ccc4[nH]ccc4c3)nccc21` [Compound 448, N-(1H-indol-5-yl)-1-methyl-imidazo[4,5-c]pyridin-4-amine] has an Emax of 50 to 100%.
`CC(=O)Nc1ccc(Nc2cc3c(cn2)nc(-c2ccccc2)n3C)cc1` [Compound 702, N-[4-[(1-methyl-2-phenyl-imidazo[4,5-c]pyridin-6-yl)amino]phenyl]acetamide] gave an Emax of 50 to 100%.
With `CC(=O)N(C)c1cccc(-c2cc3cnc(Nc4ccc(S(C)(=O)=O)cc4)cc3n2C)c1` [Compound 173, N-methyl-N-[3-[1-methyl-6-(4-methylsulfonylanilino)pyrrolo[3,2-c]pyridin-2-yl]phenyl]acetamide] the Emax was 30 to 50%.
`CNc1nc2cnc(Nc3cccc(C(C)C)c3)cc2n1CCOC` [Compound 772, N6-(3-isopropylphenyl)-1-(2-methoxyethyl)-N2-methyl-imidazo[4,5-c]pyridine-2,6-diamine] showed an Emax of 0 to 30%.

Source: EP2818472A1, “Imidazo[4,5-c]pyridine and pyrrolo[3,2-c]pyridine compounds as G-protein-coupled receptor kinase 5 (GRK5) modulators” (Max-Planck-Gesellschaft zur Förderung der Wissenschaften …, priority 2013, dated 2014)
